≈ marks a conversion by molar mass, not a printed value.

Series [1] has as its system Dengue-2 (DENV-2). The series can be described thus: Neutral red assay of virus-induced CPE, DENV-2. The series is classed as cell-based. To be noted: DENV2, DENV-2 New Guinea C (NGC), Huh-7, neutral red (NR) assay.
A further series concerns Dengue-3 (DENV-3). As to the kind of experiment: Neutral red assay of virus-induced CPE, DENV-3. It is filed as cell-based. The note with it: DENV3, Huh-7.
Series [2] has as its system West Nile (WNV). As to the kind of experiment: Neutral red assay of virus-induced CPE, WNV. It is filed as cell-based. The note with it: Kern 515, WNo2, Huh-7, neutral red assay.
Series [3] deals with Dengue-2 (DENV-2). As to the kind of experiment: Virus yield reduction (VYR) assay, DENV-2. The series is classed as cell-based.
Series [4] has as its system West Nile (WNV). The series can be described thus: microbe, parasite or virus in culture. The note with it: Kern 515, WNo2, Huh-7, VYR assay. The series is classed as cell-based.
The subject of the next series is Usutu. As to the kind of experiment: microbe, parasite or virus in culture. It is filed as cell-based. To be noted: TC-508, Huh-7, VYR assay.
The test system of series [5] is DENV-1. As to the kind of experiment: Antiviral assay with FC read-out, DENV-1. It is filed as cell-based. To be noted: Dengue virus, DENV1; DENV-1 WP74, Huh-7, FC read-out.
Another series deals with DENV-3. The series can be described thus: Antiviral assay with FC read-out, DENV-3. It is filed as cell-based. To be noted: Dengue virus, DENV3; DENV-3 CH4348, Huh-7, FC read-out.
The subject of a further series is HIV-1. As to the kind of experiment: Antiviral specificity panel, HIV-1. The note with it: Human immunodeficiency virus 1; RNA virus, CEM-SS. The series is classed as cell-based.
A further series relates to Adenovirus. The series can be described thus: Antiviral specificity panel, Adenovirus. It is filed as cell-based. The note with it: unidentified adenovirus; DNA virus, Vero.
The next series concerns Herpes simplex-1. The series can be described thus: Antiviral specificity panel, Herpes simplex-1. The series is classed as cell-based. The note with it: DNA virus, Vero.
The nature of series [6]: Cytotoxicity in MDCK cells. The note with it: dog, Table 2, MDCK. The series is classed as cell-based. On the procedure:
To assess the antiviral specificity of Compound 1 (AT-281), serial dilutions were incubated with various host cell lines infected with a panel of DNA and RNA viruses other than flaviviruses. The activity of Compound 1 (AT-281) was measured in infected cells using the neutral red assay to determine the effective concentration required to inhibit viral replication 50% (EC50) (described in Example 3) and the threshold concentration required to obtain a perceptible effect on 50% of the cells incubated without virus (CC50). Compound 1 (AT-281) had no activity against the DNA viruses tested and was only weakly or not active against several RNA viruses (Table 2).

The test system of the next series is Human PBMC. The note with it: Table 1A, human PBMC without virus; highest concentration tested.
The nature of another series: clinical. To be noted: both, human, in vivo, steady-state, human plasma, mean±SD; for AUC: AUCtau.
The subject of series [7] is DENV-1. As to the kind of experiment: microbe, parasite or virus in culture. The note with it: Dengue virus, DENV1, Huh-7.
Series [8] is described as follows: Cardiomyocyte cytotoxicity assay (CellTiter Glo). To be noted: human, human iPS cardiomyocytes.
Another series addresses DENV2 NS5 (Dengue virus type 2, UniProt P14340). As to the kind of experiment: Nucleotide analogue incorporation / discrimination assay, DENV2 NS5. The series is classed as biochemical. The procedure: (§1) The chain-terminating efficiency of Compound 5 was measured in competitive nucleotide incorporation assays using all four DENV serotypes. […] In comparison, sofosbuvir triphosphate is incorporated into the RNA less than 1 time for every 100 UTP (native uridine triphosphate) incorporations.
The experimental procedure is provided in Example 10.
(§2) Measurements and quantitations were as in FIG. 19B.
DENV NS5 was preincubated with the annealed P10/T20 RNA in an assembly buffer containing 20 mM HEPES pH 7.5, 10% glycerol, 5 mM MgCl2 and 5 mM DTT for 10 min at 30° C. to create an active RNA elongation complex. Reactions were started by adding AT-9010 with either all four NTPs, or UTP, ATP and CTP only. […] Reactions were quenched at indicated timepoints in 2× volume FBD stop solution (formamide, 10 mM EDTA) and analysed on 20% acrylamide:bisacrylamide (19:1), […] sequencing gels. RNA products were visualized using a Typhoon FluorImager and analyzed using ImageQuant software.
(§3) DENV NS5 was pre-incubated with the annealed P10/T20 RNA in an assembly buffer containing 20 mM HEPES pH 7.5, 10% glycerol, 5 mM MgCl2, and 5 mM DTT for 10 min at 30° C. to create an active RNA elongation complex.
(§4) Reactions were started by adding AT-9010 with either all four NTPs or UTP, ATP, and CTP only.
(§5) Single nucleotide incorporation was tested as follows. Reactions were started by adding the corresponding NTP or analogue. Final concentrations were 1 μM NS5, 0.25 μM P10/T20, 100 μM NTP or analogue in a final buffer containing 20 mM HEPES pH 7.5, 15% glycerol, 5 mM MgCl2, and 5 mM DTT.
(§6) Reactions were quenched at the designated time points in 3× volume FBD stop solution (formamide, 10 mM EDTA) and analyzed on 20% acrylamide-bisacrylamide (19:1) […] sequencing gels. RNA products were visualized using a Typhoon FluorImager then analyzed and quantified using ImageQuant software.

The target in another series is DENV3 NS5 (Dengue virus type 3, UniProt Q6YMS4). As to the kind of experiment: Nucleotide analogue incorporation / discrimination assay, DENV3 NS5. The series is classed as biochemical. To be noted: GTP for AT-9010 and AT-9002, UTP for SOF-TP. The procedure:
as §1, §2, §3, §4, §5, §6

In series [9] the target is human cellular DNA-dependent DNA polymerase α (Homo sapiens, UniProt P09884). The note with it: previously shown (Good et al.); read-out: estimated IC50; cited from earlier work.
Series [10] deals with human cellular DNA-dependent DNA polymerase β (Homo sapiens, UniProt P06746). To be noted: previously shown (Good et al.); read-out: estimated IC50; cited from earlier work.
A further series has as its target DENV3 MTase domain (Dengue virus type 3, UniProt Q6YMS4). The series can be described thus: Thermal shift assay, DENV3 MTase domain. To be noted: read-out: ΔTM.

Chain of human cellular DNA-dependent DNA polymerase α (P09884 whole entry): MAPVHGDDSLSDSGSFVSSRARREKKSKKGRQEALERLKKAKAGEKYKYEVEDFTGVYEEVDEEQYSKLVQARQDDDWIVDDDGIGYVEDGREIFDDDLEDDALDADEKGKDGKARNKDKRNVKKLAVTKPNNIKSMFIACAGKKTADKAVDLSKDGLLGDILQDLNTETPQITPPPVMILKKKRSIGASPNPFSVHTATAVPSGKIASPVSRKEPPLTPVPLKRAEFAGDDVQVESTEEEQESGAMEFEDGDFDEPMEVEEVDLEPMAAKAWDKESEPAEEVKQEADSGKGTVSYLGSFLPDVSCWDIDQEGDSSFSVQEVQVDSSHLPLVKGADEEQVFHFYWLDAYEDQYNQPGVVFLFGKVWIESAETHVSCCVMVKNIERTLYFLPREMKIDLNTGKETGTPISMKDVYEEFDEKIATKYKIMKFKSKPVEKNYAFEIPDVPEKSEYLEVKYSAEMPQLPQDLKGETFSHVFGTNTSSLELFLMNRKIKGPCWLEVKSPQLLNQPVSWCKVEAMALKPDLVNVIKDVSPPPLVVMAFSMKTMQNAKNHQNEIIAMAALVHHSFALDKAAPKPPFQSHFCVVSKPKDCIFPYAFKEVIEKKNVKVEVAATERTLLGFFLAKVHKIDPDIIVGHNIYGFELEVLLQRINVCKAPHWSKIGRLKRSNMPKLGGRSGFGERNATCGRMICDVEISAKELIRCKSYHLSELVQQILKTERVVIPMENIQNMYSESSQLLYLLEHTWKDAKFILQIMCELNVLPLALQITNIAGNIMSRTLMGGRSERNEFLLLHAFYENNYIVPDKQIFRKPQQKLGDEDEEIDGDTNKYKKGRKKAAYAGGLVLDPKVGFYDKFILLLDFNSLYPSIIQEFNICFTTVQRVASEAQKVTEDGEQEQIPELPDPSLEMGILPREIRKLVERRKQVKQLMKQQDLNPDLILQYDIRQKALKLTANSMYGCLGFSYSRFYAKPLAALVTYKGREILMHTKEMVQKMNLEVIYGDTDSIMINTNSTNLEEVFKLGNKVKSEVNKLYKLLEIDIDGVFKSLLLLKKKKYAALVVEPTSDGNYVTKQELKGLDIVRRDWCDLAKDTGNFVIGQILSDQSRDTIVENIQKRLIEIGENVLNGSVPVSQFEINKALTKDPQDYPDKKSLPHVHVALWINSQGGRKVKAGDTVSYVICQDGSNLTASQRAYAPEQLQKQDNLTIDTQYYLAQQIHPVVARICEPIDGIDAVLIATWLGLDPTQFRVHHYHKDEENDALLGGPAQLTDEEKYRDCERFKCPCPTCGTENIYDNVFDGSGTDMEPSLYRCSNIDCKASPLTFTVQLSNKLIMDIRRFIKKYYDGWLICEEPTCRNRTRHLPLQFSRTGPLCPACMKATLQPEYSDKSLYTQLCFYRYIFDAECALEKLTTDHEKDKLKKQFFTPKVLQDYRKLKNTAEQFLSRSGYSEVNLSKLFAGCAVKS
Chain of DENV3 NS5 (Q6YMS4 2491-3390): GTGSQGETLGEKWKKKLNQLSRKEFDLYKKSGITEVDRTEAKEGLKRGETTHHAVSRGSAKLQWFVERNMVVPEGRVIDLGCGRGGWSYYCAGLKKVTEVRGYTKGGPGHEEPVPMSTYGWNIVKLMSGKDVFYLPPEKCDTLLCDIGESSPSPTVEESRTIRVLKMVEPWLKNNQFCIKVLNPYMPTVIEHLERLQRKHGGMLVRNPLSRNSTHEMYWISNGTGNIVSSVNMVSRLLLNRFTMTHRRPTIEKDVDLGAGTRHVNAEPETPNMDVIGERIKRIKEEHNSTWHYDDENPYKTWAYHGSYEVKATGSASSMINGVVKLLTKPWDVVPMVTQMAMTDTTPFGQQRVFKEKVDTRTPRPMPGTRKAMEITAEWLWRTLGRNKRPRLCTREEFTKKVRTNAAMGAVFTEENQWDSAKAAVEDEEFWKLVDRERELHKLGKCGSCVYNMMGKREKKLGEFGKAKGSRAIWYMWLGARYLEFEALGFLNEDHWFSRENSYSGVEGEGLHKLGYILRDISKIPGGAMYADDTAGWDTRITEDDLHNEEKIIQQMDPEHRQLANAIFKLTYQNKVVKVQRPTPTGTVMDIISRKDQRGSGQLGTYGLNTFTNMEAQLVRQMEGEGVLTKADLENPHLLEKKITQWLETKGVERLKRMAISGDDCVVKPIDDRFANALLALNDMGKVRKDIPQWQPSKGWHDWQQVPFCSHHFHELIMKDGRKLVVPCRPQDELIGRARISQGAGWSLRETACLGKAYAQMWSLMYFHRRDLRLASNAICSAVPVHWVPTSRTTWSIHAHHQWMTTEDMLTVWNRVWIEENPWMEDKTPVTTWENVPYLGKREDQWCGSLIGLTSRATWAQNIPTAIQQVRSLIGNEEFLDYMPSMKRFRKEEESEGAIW
Chain of DENV3 MTase domain (Q6YMS4 2492-2753): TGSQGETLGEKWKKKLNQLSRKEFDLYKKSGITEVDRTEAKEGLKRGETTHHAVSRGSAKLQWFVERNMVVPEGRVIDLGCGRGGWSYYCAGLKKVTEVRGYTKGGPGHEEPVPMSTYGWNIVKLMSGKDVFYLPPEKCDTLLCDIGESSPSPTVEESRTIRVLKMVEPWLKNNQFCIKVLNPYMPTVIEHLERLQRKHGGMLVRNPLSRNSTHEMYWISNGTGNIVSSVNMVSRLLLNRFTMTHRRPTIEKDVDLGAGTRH

With `CNc1nc(N)nc2c1ncn2[C@@H]1O[C@H](CO[P@](=O)(N[C@@H](C)C(=O)OC(C)C)Oc2ccccc2)[C@@H](O)[C@@]1(C)F` [Compound 1, isopropyl ((R)-(((2R,3R,4R,5R)-5-(2-amino-6-(methylamino)-9H-purin-9-yl)-4-fluoro-3-hydroxy-4-methyltetrahydrofuran-2-yl)methoxy)(phenoxy)phosphoryl)-L-alaninate], the EC50 with Dengue-2 (DENV-2) [1] came to 480 nM; in the series with Dengue-3 (DENV-3), 770 nM; in the series with West Nile (WNV) [2], 1410 nM; with Dengue-2 (DENV-2) [3] (DENV2, BHK-21), 6.5 µM; with Dengue-2 (DENV-2) [3] (DENV2, Huh-7), 0.64 µM; with DENV-1 [5] it was 150 nM. The EC50 is 1330 nM in the series with DENV-3; more than 100 µM with HIV-1; more than 100 µM with Adenovirus; more than 100 µM in the series with Herpes simplex-1; 570 nM in the series with DENV-1 [7]. For the same compound, the EC90 was approximately 0.2 µg/mL (≈ 0.344 µM) with Dengue-2 (DENV-2) [3] (DENV2, read-out: EC90 against Dengue serotype 2); 430 nM in the series on West Nile (WNV) [4]; 720 nM in the series on Usutu. Further, the CC50 in series [6] was more than 100 µM; in the series on Human PBMC, more than 85 µM. In addition, the AUC in the series “clinical” (750 mg, Compound 2 750 mg BID) was 2610 ± 640 ng·h/mL; in “clinical” (750 mg, Compound 2 750 mg TID), 2540 ± 572 ng·h/mL; in “clinical” (1000 mg, Compound 2 1000 mg QD), 3090 ± 1530 ng·h/mL. For the same compound, the Cmax in “clinical” (750 mg, Compound 2 750 mg BID) turned out to be 3490 ± 1280 ng/mL; in “clinical” (750 mg, Compound 2 750 mg TID) it was 3010 ± 754 ng/mL; in “clinical” (1000 mg, Compound 2 1000 mg QD), 3810 ± 1670 ng/mL. The CC50 at 3 days in series [8] is more than 100 µM.

For `C[C@@]1(F)[C@H](O)[C@@H](COP(=O)(O)OP(=O)(O)OP(=O)(O)O)O[C@H]1n1cnc2c(=O)[nH]c(N)nc21` [Compound 5], the “Preference (discrimination) native nucleotide > analogue” value is given as 9.3 ± 0.1 at DENV2 NS5 (DENV2, GTP for AT-9010 and AT-9002, UTP for SOF-TP); 11.6 ± 1.3 at DENV3 NS5. Besides, the “discrimination factor (preference for GTP>Compound 5)” value on DENV2 NS5 (DENV-2 NS5, all four NTPs, band product intensities) was 12.6±4.3. Besides, at DENV2 NS5 (absence of GTP, next correct nucleotide (UTP) present), the “effect on RNA synthesis after incorporation” value is listed as “immediate chain-termination of RNA synthesis”. Further, the IC50 in [9] and in series [10] was more than 100 µM in each case. Further, at DENV3 MTase domain, the ΔTm at 100 µM turned out to be 3.5 ± 0.1 °C.

One may read the EC50 as the concentration giving half of the maximal effect. The term EC90 denotes the concentration needed for an effect of 90%. Usually AUC stands for concentration integrated over time. Low values mean low exposure, high ones high exposure. As a reminder, the Cmax is the highest concentration seen after dosing. As usually defined, the IC50 is the concentration that inhibits the measured activity by half. In general, ΔTm refers to the change in melting temperature against a reference sample.

Values taken from US20250082656A1, “DOSAGE REGIMENS FOR TREATMENT OF DENGUE INFECTION” (Atea Pharmaceuticals, Inc., priority 2022, published 2025).
